Where a name gives a salt, the structure may show the parent alone. Read-outs that look alike come from different tables or passages of the source.
Experiments:
S1P1 [1] = target: T1, S1P1 (Homo sapiens, UniProt P21453); experiment: Receptor binding assay, [33P]sphingosine 1-phosphate competition, membranes of CHO cells expressing S1P1
Protocol: (§1) Membranes were prepared from CHO cells expressing S1P1 or S1P3 for use in ligand binding studies. Cells were suspended in 50 mM TRIS, pH 7.4, 2 mM EDTA, 250 mM Sucrose (buffer A) and 1× Complete protease inhibitor cocktail (Roche), and disrupted at 4° C. by N2 decompression using a cell disruption bomb (Parr Instrument). Following centrifugation at 1000 RPM for 10 min at 4° C., the supernatant was diluted (2×) in buffer A and centrifuged again at 19000 RPM for 75 min at 4° C. The pellet was then suspended in 10 mM HEPES, pH 7.4, 1 mM EDTA, 250 mM Sucrose (Buffer B), and 1× Complete EDTA-free protease inhibitor cocktail and homogenized using a potter. Membranes were flash frozen in liquid N2 and stored at −80° C.
(§2) [33P]sphingosine 1-phosphate (3000 Ci/mmol; American Radiolabeled Chemicals, Inc.) was added to test compounds in 20% DMSO by competition. Membranes and WGA SPA beads (GE Healthcare) were added to give a final volume of 100 μl in 96-well plates or 50 μl in 384-well plates with assay concentrations of 30 pM or 15 pM [33P]sphingosine 1-phosphate (respectively for S1P1 or S1P3), 50 mM HEPES, pH 7.5, 5 mM MgCl2, 100 mM NaCl, 0.4% fatty acid-free BSA, 1-5 μg/well of proteins in 96-well plates vs 0.6-1 μg/well of proteins in 384-well plates and 100 μg/well of WGA SPA beads in 96-well plates vs 75 μg/well of WGA SPA beads in 384-well plates. Binding was performed for 60 min at RT on a shaker and bound radioactivity was measured on a PerkinElmer 1450 MicroBeta counter. Triplicate samples were averaged and normalized as percentage of inhibition relative to total binding (only DMSO in well) and non specific binding (1000-fold excess of unlabeled S1P). Binding data were analyzed using the GraphPad Prism program or Genedata software.
(§3) The “potency” or the “activity” of the compounds is determined by the Ki values as evaluated in one of the above described binding assay, 96 or 384 well plates.
Target sequence in this assay (P21453 whole entry, species assumed): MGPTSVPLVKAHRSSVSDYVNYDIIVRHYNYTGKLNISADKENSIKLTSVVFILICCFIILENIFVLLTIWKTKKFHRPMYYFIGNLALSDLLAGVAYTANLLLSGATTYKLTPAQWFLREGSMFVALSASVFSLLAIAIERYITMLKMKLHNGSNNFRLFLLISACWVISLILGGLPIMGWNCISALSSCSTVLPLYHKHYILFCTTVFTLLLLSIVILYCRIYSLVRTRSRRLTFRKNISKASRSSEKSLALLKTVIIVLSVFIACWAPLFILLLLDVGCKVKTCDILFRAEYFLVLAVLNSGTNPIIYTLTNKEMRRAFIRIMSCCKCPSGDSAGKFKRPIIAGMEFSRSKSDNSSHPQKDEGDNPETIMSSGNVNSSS

S1P1 [2] = target: T1, S1P1; experiment: S1P1 internalization assay in S1P1-U2OS cells (cell imaging); type: cell-based; set-up: host or cells: U2OS (human bone osteosarcoma epithelial cells); details: U2OS cells expressing S1P1-EGFP, 384-well format
Protocol: Cellular Functional Assays: Internalization of Sphinqosine-1-phosphate Receptor 1 (S1P1) in a Human Cell Line (U2OS) in a 384-Well Format Using a Cell Imaging Analysis.
The S1P1 internalization assay was performed in 384 well plates (Corning 384 black with clear bottom 3712) using S1P1-U2OS cells from BioImage (C039A), a human epithelial cell line (Human Bone Osteosarcoma Epithelial Cells). These cells expressed the human S1P1 Receptor fused to the green fluorescent protein (EGFP). A standard CMV promoter (cytomegalovirus promoter) controls the expression of S1P1-EGFP and continuous expression was maintained by addition of geneticin to the culture medium.
S1P1 Receptor desensitization induced the internalization of the membrane-localized S1P-EGFP fusion protein to endosomes, which can be monitored by cell imaging analysis.
The cells are plated in low serum medium (Dulbecco's Modified Eagle Medium (DMEM) with Glutamax-1 and high glucose, 1% Penicillin/Streptomycin, 1% Fetal Calf Serum (FCS), 0.5 mg/ml Geneticin) overnight.
The next day, S1P1-U2OS cells are incubated in 20 μl serum free medium (DMEM with Glutamax-1 and high glucose, 0.1% of fatty-acid free Bovin Serum Albumin (BSA), 10 mM, N′-2-Hydroxyethylpiperazine-N′-2 ethanesulphonic acid (HEPES) 1M) for 2 hours at 37° C./5% CO2. The cells are then treated with 4 μl compounds/agonists (6×/3% DMSO) for a total volume of 24 μl, and plates are incubated for 1 hour at 37° C./5% CO2.
S1P1-U2OS cells are fixed with 25 μl Paraformaldehyde 8% and stained with Hoechst 33345 dye (1:1000) for 20 minutes.
They were then washed 3 times with Phosphate Buffered Saline (PBS) and plates are sealed. The internalization of the receptor S1P1-EGFP is measured on Cellomics by calculating the “spot count per object” (“object” corresponds to nuclear and “spot” corresponds to S1P1-EGFP receptor). Internalization data were observed thanks to vHCS View and analyzed using Genedata® software.
Target sequence in this assay (P21453 whole entry): as the sequence (P21453 whole entry, species assumed) above

S1P3 = S1P3 (Homo sapiens, UniProt Q99500); experiment: Receptor binding assay, [33P]sphingosine 1-phosphate competition, membranes of CHO cells expressing S1P3
Sequence of S1P3 (Q99500 whole entry, species assumed): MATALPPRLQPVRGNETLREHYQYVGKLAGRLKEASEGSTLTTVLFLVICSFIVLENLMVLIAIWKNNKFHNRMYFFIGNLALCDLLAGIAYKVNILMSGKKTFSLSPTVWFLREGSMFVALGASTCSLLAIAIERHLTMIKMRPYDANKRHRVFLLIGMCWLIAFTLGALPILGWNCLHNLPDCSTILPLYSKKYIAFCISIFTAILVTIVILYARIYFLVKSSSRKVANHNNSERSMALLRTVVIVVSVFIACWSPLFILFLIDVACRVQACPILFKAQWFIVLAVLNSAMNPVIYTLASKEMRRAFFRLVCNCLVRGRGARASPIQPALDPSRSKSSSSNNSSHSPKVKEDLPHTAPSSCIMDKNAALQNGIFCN
Protocol: as §1, §2, §3

[3] = 384 well plate, read-out: S1P1 Binding Ki [M] (384 well plate)
[4] = 96 well plate, read-out: S1P1 Binding Ki [M] (96 well plate)
[5] = 96 well plate, read-out: S1P3 Binding Ki [M] (96 well plate)

Compound | Ki (S1P1 [1]; [3]) | EC50 (S1P1 [2]) | Ki (S1P3; 384 well plate, read-out: S1P3 Binding Ki [M] (384 well plate)) | Ki (S1P1 [1]; [4]) | Ki (S1P3; [5])
Cc1cc(-c2nc(-c3ccc([C@H](C)N[C@H](C)C(=O)O)cc3)no2)ccc1-c1ccccc1C(F)(F)F (racemic) [Example 25, N-[(1S)-1-(4-{5-[2-methyl-2′-(trifluoromethyl)biphenyl-4-yl]-1,2,4-oxadiazol-3-yl}phenyl)ethyl]-D-alanine and N-[(1R)-1-(4-{5-[2-methyl-2′-(trifluoromethyl)biphenyl-4-yl]-1,2,4-oxadiazol-3-yl}phenyl)ethyl]-L-alanine] | 2.59e-09 M | 28.1 nM | > 2e-05 M | – | –
Cc1ccccc1-c1ccc(-c2nc(-c3ccc([C@@H](CO)N[C@H](C)C(=O)O)cc3)no2)cc1C(F)(F)F (single isomer, unassigned) [Example 99, hydrochloride salt] | – | – | – | 8.85e-10 M | 2.3e-06 M
Cc1ccccc1-c1ccc(-c2nc(-c3ccc([C@H](CO)N[C@H](C)C(=O)O)cc3)no2)cc1C(F)(F)F (single isomer, unassigned) [Example 100, hydrochloride salt] | – | – | – | 1.09e-09 M | 2.45e-06 M
CC[C@H](N[C@H](C)c1ccc(-c2noc(-c3ccc(-c4ccccc4C)c(C(F)(F)F)c3)n2)cc1)C(=O)O [Example 10, (2S)-2-{[(1R)-1-(4-{5-[2′-methyl-2-(trifluoromethyl)biphenyl-4-yl]-1,2,4-oxadiazol-3-yl}phenyl)ethyl]amino}butanoic acid, hydrochloride salt] | 1.94e-08 M | 187 nM | – | – | –
Cc1cc(-c2nc(-c3cccc(C(C)N(C)[C@@H](C)C(=O)O)c3)no2)ccc1-c1ccccc1C(F)(F)F (stereo partly shown) [Example 28, N-methyl-N-[1-(3-{5-[2-methyl-2′-(trifluoromethyl)biphenyl-4-yl]-1,2,4-oxadiazol-3-yl}phenyl)ethyl]alanine, hydrochloride salt] | 1.38e-08 M | 5170 nM | – | – | –
CCCC(NCc1ccc(-c2noc(-c3ccc(-c4ccccc4C)c(C(F)(F)F)c3)n2)cc1)C(=O)O (stereo not shown) [Example 62] | 3.81e-09 M | 73.3 nM | – | – | –
Cc1ccccc1-c1ccc(-c2nc(-c3ccc(CN(C)C(C(=O)O)C(C)O)cc3)no2)cc1C(F)(F)F (stereo not shown) [Example 74] | 8.53e-09 M | 106 nM | – | – | –
Cc1ccccc1-c1ccc(-c2nc(-c3cccc(CNC(C(=O)O)C(C)O)c3)no2)cc1C(F)(F)F (stereo not shown) [Example 77] | 5.47e-09 M | 39.9 nM | – | – | –
COCc1cc(-c2nc(-c3ccc([C@H](C)N(C)CC(=O)O)cc3)no2)ccc1-c1ccccc1C [Example 98, N-[(1S)-1-(4-{5-[2-(methoxymethyl)-2′-methylbiphenyl-4-yl]-1,2,4-oxadiazol-3-yl}phenyl)ethyl]-N-methylglycine, hydrochloride salt] | – | – | – | 6.2e-10 M | ≥ 2e-05 M
Cc1ccccc1-c1ccc(-c2nc(-c3ccc([C@@H](C)N)cc3)no2)cc1C(F)(F)F [Example M1] | – | – | – | 4.05e-10 M | 1.45e-06 M

The remaining lines, values ahead:

Ki (S1P1 [1]; [3]) | EC50 (S1P1 [2]) | Ki (S1P3; 384 well plate, read-out: S1P3 Binding Ki [M] (384 well plate)) | Ki (S1P1 [1]; [4]) | Ki (S1P3; [5]) | Compound
4.29e-09 M | 89.4 nM | – | – | – | Cc1cc(-c2nc(-c3ccc([C@H](C)N[C@@H](C)C(=O)O)cc3)no2)ccc1-c1ccccc1C(F)(F)F (racemic) [Example 24, N-[(1S)-1-(4-{5-[2-methyl-2′-(trifluoromethyl)biphenyl-4-yl]-1,2,4-oxadiazol-3-yl}phenyl)ethyl]-L-alanine, hydrochloride salt and N-[(1R)-1-(4-{5-[2-methyl-2′-(trifluoromethyl)biphenyl-4-yl]-1,2,4-oxadiazol-3-yl}phenyl)ethyl]-D-alanine, hydrochloride salt]
1.43e-08 M | 410 nM | – | – | – | Cc1cc(-c2nc(-c3cccc(C(C)N(C)CC(=O)O)c3)no2)ccc1-c1ccccc1C(F)(F)F (stereo not shown) [Example 30, N-methyl-N-[1-(3-{5-[2-methyl-2′-(trifluoromethyl)biphenyl-4-yl]-1,2,4-oxadiazol-3-yl}phenyl)ethyl]glycine, hydrochloride salt]
5.77e-09 M | 91 nM | – | – | – | Cc1cc(-c2nc(-c3ccc([C@H](C)N(C)CC(=O)O)cc3)no2)ccc1-c1ccccc1C(F)(F)F [Example 33, N-methyl-N-[(1S)-1-(4-{5-[2-methyl-2′-(trifluoromethyl)biphenyl-4-yl]-1,2,4-oxadiazol-3-yl}phenyl)ethyl]glycine, hydrochloride salt]
6.14e-09 M | 211 nM | – | – | – | Cc1cc(-c2nc(-c3ccc([C@@H](C)N(C)CC(=O)O)cc3)no2)ccc1-c1ccccc1C(F)(F)F [Example 35, N-methyl-N-[(1R)-1-(4-{5-[2-methyl-2′-(trifluoromethyl)biphenyl-4-yl]-1,2,4-oxadiazol-3-yl}phenyl)ethyl]glycine, hydrochloride salt]
7.52e-09 M | 29.8 nM | – | – | – | COCC(c1ccc(-c2noc(-c3ccc(-c4ccccc4C)c(C(F)(F)F)c3)n2)cc1)N(C)CC(=O)O (stereo not shown) [Example 51, 2-((2-methoxy-1-(4-(5-(2′-methyl-2-(trifluoromethyl)biphenyl-4-yl)-1,2,4-oxadiazol-3-yl)phenyl)ethyl)(methyl)amino)acetic acid]
1.5e-08 M | 133 nM | – | – | – | COCC(NCc1cccc(-c2noc(-c3ccc(-c4ccccc4C)c(C(F)(F)F)c3)n2)c1)C(=O)O (stereo not shown) [Example 76, 3-Methoxy-2-{3-[5-(2′-methyl-2-trifluoromethyl-biphenyl-4-yl)-[1,2,4]oxadiazol-3-yl]-benzylamino}-propionic acid]
3.56e-09 M | 75.5 nM | – | – | – | Cc1ccccc1-c1ccc(-c2nc(-c3cccc(CN(C)C(C)(C)C(=O)O)c3)no2)cc1C(F)(F)F [Example 83, 2-Methyl-2-(methyl-{3-[5-(2′-methyl-2-trifluoromethyl-biphenyl-4-yl)-[1,2,4]oxadiazol-3-yl]-benzyl}-amino)-propionic acid]
4.25e-09 M | 84.6 nM | – | – | – | Cc1ccccc1-c1ccc(-c2nc(-c3cccc(CN(C)C(C)(CO)C(=O)O)c3)no2)cc1C(F)(F)F (stereo not shown) [Example 84]
2.85e-09 M | 69.7 nM | – | – | – | CCN(Cc1cccc(-c2noc(-c3ccc(-c4ccccc4C)c(C(F)(F)F)c3)n2)c1)C(C)(C)C(=O)O [Example 88, 2-(Ethyl-{3-[5-(2′-methyl-2-trifluoromethyl-biphenyl-4-yl)-[1,2,4]oxadiazol-3-yl]-benzyl}-amino)-2-methyl-propionic acid]
– | – | – | 7.8e-10 M | 4.8e-07 M | COCc1cc(-c2nc(-c3ccc([C@@H](C)N(C)CC(=O)O)cc3)no2)ccc1-c1ccccc1C [Example 97, N-[(1R)-1-(4-{5-[2-(methoxymethyl)-2′-methylbiphenyl-4-yl]-1,2,4-oxadiazol-3-yl}phenyl)ethyl]-N-methylglycine, hydrochloride salt]
– | – | – | 5.6e-10 M | 2.4e-08 M | CNCc1cccc(-c2noc(-c3ccc(-c4ccccc4C)c(C(F)(F)F)c3)n2)c1 [Example M2]

Reference: US9029405B2, “5-(biphenyl-4-yl)-3-phenyl-1,2,4-oxadiazolyl derivatives as ligands on the sphingosine 1-phosphate(SIP)receptors” (Merck Serono S.A., priority 2010, dated 2015)
